Reference: patent publication US6087355A, “Cephalosporin antibiotics” (Microcide Pharmaceuticals, Inc., priority 1996, dated 2000)
Counter-ions that a name gives are not always drawn.

Columns and labels:
[1] = tested on: S. aureus Col(Meth^R)(lac^-); test: In vitro MIC, agar dilution; type: cell-based; settings: Staphylococcus aureus, read-out: minimum inhibitory concentration (MIC)
Outline: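 Two-fold dilutions (128 to ≤0.25 μg/mL, in duplicate) were poured into Mueller-Hinton agar. Log-phase broth cultures were spot-inoculated at about 10^4 cfu per spot and incubated 35-36°C for 16-20 hours; the MIC was the lowest concentration inhibiting growth. Col is a high-level PBP2a producer; Col 8A is its isogenic PBP2a-lacking partner.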

[2] = tested on: S. aureus strain ATCC 13709 (methicillin-susceptible); test: Murine model for lethal bacteremic peritonitis; type: in vivo, female Swiss-Webster mice; settings: Staphylococcus aureus, ATCC13709, SC, 72 h; for responders at 1.25 mg/kg: read-out: Survivors (converted); for ED50: two equal doses, IP challenge, read-out: ED50
Procedure: Groups of 5 female Swiss-Webster mice (Simonsen, Gilroy, Calif.) each are challenged by the intraperitoneal (IP) route with tenfold increments of a bacterial inoculum. This permits calculation of the mean lethal dose (LD50) and the LD100. For preliminary evaluation of a new antibiotic, mice are challenged IP with an LD100 titer of bacteria. In two equal doses administered at the time of bacterial challenge and 2 hours later, groups of 10 mice each are treated subcutaneously with two-fold increments of the test drug and an antibiotic of known efficacy in mice and humans (i.e., positive control). Mice are observed for 72 h. Those alive at 72 h are considered long term survivors. The total drug dose in mg/kg that protects 50% of mice in a group from death is termed the mean protective dose (PD50). PD50 s are similarly determined for several pathogens. The quantitative endpoints for the new drug are then compared with those obtained with reference antibiotics.
Six ten-fold dilutions of inoculum suspended in 0.5 mL of sterilized 7% hog gastric mucin (Sigma) are injected IP in groups of 5 mice each. A control group of 5 mice receive mucin alone. Mice are observed for 72 h. Those alive at 72 h are considered long term survivors. The mean lethal dose (LD50) and 100% lethal dose (LD100) are determined by the probit test.
For antibiotic efficacy studies, mice are challenged IP with bacterial titers that will afford an LD100 for the test strain. In two equal doses administered at the time of bacterial challenge and 2 hours later, groups of 10 mice each are treated by the subcutaneous route (SC) with twofold increments of the test antibiotic; another group is treated similarly with a reference antibiotic of known efficacy in animals and man. Drug doses can range from 0.01 to 512 mg/kg. If the drug is poorly soluble, Tween 20 or propylene glycol will be employed to solubilize the drug. Animals are observed for 72 h. The 50% protective dose (PD50) is calculated in mg/kg by the probit method. The PD50 is the same as the 50% effective dose (ED50) and the 50% curative dose (CD50). Samples of blood from the hearts of all animals that die and from half the mice that survive are cultured on brain-heart infusion agar. Animals that received a protective dosage of the test drug will be alive at 72 h, although they may appear moderately ill to very ill during the observation period. […] Most of these mice will die within 6 to 48 h. Those alive at 72 h will be considered long term survivors.
(Compound numbers correspond to those in MIC tables; data reported for challenge with methicillin-susceptible S. aureus strain ATCC 13709.)

[3] = tested on: S. haemolyticus 05(Meth^R); test: In vitro MIC, agar dilution; type: cell-based; settings: Staphylococcus haemolyticus, read-out: minimum inhibitory concentration (MIC)
Outline: (§1)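 Agar dilution on Mueller-Hinton plates: spots of roughly 10^4 cfu of log-phase bacteria were placed on agar containing serial two-fold compound dilutions, from a 128 μg/mL top working level to ≤0.25 μg/mL, each in duplicate. After 16-20 hours at 35-36° C, the lowest growth-inhibiting concentration was taken as the MIC.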

E. faecium VanA(Van^R) = test: In vitro MIC, agar dilution; type: cell-based; settings: Enterococcus faecium, read-out: minimum inhibitory concentration (MIC)
Outline: as §1

S. aureus ATCC 29213 = test: In vitro MIC, agar dilution; type: cell-based; settings: Staphylococcus aureus, ATCC29213, read-out: minimum inhibitory concentration (MIC)
Outline: as §1

E. faecium ATCC 35667 = test: In vitro MIC, agar dilution; type: cell-based; settings: Enterococcus faecium, ATCC35667, read-out: minimum inhibitory concentration (MIC)
Outline: as §1

E. coli ATCC 25992 = test: In vitro MIC, agar dilution; type: cell-based; settings: Escherichia coli, ATCC25992, read-out: minimum inhibitory concentration (MIC)
Outline: as §1

[4] = tested on: S. aureus ATCC 33593(Meth^R); test: In vitro MIC, agar dilution; type: cell-based; settings: Staphylococcus aureus, ATCC33593, read-out: minimum inhibitory concentration (MIC)
Outline: as §1

E. faecium A491(Amp^R) = test: In vitro MIC, agar dilution; type: cell-based; settings: Enterococcus faecium, read-out: minimum inhibitory concentration (MIC)
Outline: as §1

[5] = tested on: S. aureus ATCC 13709(Meth^S); test: In vitro MIC, agar dilution; type: cell-based; settings: Staphylococcus aureus, ATCC13709, S. aureus ATCC 13709(Meth^S); read-out: minimum inhibitory concentration (MIC)
Outline: as §1

E. faecalis VanB(Van^R) = test: In vitro MIC, agar dilution; type: cell-based; settings: Enterococcus faecalis, read-out: minimum inhibitory concentration (MIC)
Outline: as §1

P. aeruginosa ATCC 27853 = test: In vitro MIC, agar dilution; type: cell-based; settings: Pseudomonas aeruginosa, ATCC27853, read-out: minimum inhibitory concentration (MIC)
Outline: as §1

E. faecalis ATCC 29212 = test: In vitro MIC, agar dilution; type: cell-based; settings: Enterococcus faecalis, ATCC29212, read-out: minimum inhibitory concentration (MIC)
Outline: as §1

[6] = tested on: S. aureus PC1(Meth^S)(lac^+); test: In vitro MIC, agar dilution; type: cell-based; settings: Staphylococcus aureus, read-out: minimum inhibitory concentration (MIC)
Outline: as §1

[7] = tested on: S. aureus 76(Meth^R)(lac^+); test: In vitro MIC, agar dilution; type: cell-based; settings: Staphylococcus aureus, read-out: minimum inhibitory concentration (MIC)
Outline: as §1

[8] = tested on: S. aureus Spain #356(Meth^R); test: In vitro MIC, agar dilution; type: cell-based; settings: Staphylococcus aureus, read-out: minimum inhibitory concentration (MIC)
Outline: as §1

Structure (SMILES) | MIC [1] [µg/mL] | responders at 0.3125 mg/kg ([2]; read-out: Survivors) [%] | responders at 0.625 mg/kg ([2]; read-out: Survivors) [%] | responders at 1.25 mg/kg [2] [%] | responders at 2.5 mg/kg ([2]; read-out: Survivors) [%] | ED50 [2] [mg/kg] | MIC [3] [µg/mL] | MIC (E. faecium VanA(Van^R)) [µg/mL] | MIC (S. aureus ATCC 29213) [µg/mL] | MIC (E. faecium ATCC 35667) [µg/mL] | MIC (E. coli ATCC 25992) [µg/mL] | MIC [4] [µg/mL] | MIC (E. faecium A491(Amp^R)) [µg/mL] | MIC [5] [µg/mL] | MIC (E. faecalis VanB(Van^R)) [µg/mL] | MIC (P. aeruginosa ATCC 27853) [µg/mL] | MIC (E. faecalis ATCC 29212) [µg/mL] | MIC [6] [µg/mL] | MIC [7] [µg/mL] | MIC [8] [µg/mL] | other results
N=C(N)SCc1cnccc1SC1=C(C(=O)O)N2C(=O)[C@@H](NC(=O)/C(=N\O)c3csc(N)n3)[C@H]2SC1 [Cmpd 3, (7R)-7-[(Z)-2-(aminothiazol-4-yl)-2-(hydroxyimino)acetamido]-3-(3-isothioureidomethylpyrid-4-ylthio)-3-cephem-4-carboxylate, trifluoroacetic acid salt] | 8 | 50 | 80 | 70 | 90 | 0.42 | 8 | 8 | 0.5 | 2 | 2 | 8 | > 32 | 0.5 | 1 | > 32 | 0.5 | 0.5 | 8 | 8 | responders at 0.156 mg/kg ([2]; read-out: Survivors): 0%
NCCSCc1cnccc1SC1=C(C(=O)O)N2C(=O)[C@@H](NC(=O)/C(=N\O)c3csc(N)n3)[C@H]2SC1 [Cmpd 10, (7R)-7-[(Z)-2-(aminothiazol-4-yl)-2-(hydroxyimino)acetamido]-3-(3-aminoethylthiomethylpyrid-4-ylthio)-3-cephem-4-carboxylate, trifluoroacetic acid salt] | 2 | 20 | 80 | 100 | – | 1.29 | 4 | 4 | 0.5 | 2 | 4 | 2 | > 32 | 0.5 | 1 | > 32 | 0.5 | 0.5 | 2 | 2 | responders at 0.078 mg/kg ([2]; Dose 0.078 mg/kg, read-out: Survivors): 20%; responders at 0.156 mg/kg ([2]; read-out: Survivors): 20%
N=C(N)NCCSCc1cnccc1SC1=C(C(=O)O)N2C(=O)[C@@H](NC(=O)/C(=N\O)c3csc(N)n3)[C@H]2SC1 [Cmpd 14, (7R)-7-[(Z)-2-(aminothiazol-4-yl)-2-(hydroxyimino)acetamido]-3-(3-guanidinoethylthiomethylpyrid-4-ylthio)-3-cephem-4-carboxylate, trifluoroacetic acid salt] | 4 | 10 | 30 | 30 | 90 | 1.13 | 4 | 2 | 0.5 | 1 | 4 | 2 | > 32 | 0.25 | 0.25 | > 32 | 0.25 | 0.5 | 4 | 4 | responders at 5 mg/kg ([2]; read-out: Survivors): 100%
CNCCSCc1cnccc1SC1=C(C(=O)O)N2C(=O)[C@@H](NC(=O)/C(=N\O)c3csc(N)n3)[C@H]2SC1 [Cmpd 15, (7R)-7-[(Z)-2-(aminothiazol-4-yl)-2-(hydroxyimino)acetamido]-3-(3-methylaminoethylthiomethylpyrid-4-ylthio)-3-cephem-4-carboxylate, trifluoroacetic acid salt] | 4 | 20 | 0 | 20 | 50 | 4.63 | 8 | 4 | 1 | 2 | 8 | 4 | > 32 | 0.5 | 0.5 | > 32 | 2 | 1 | 4 | 4 | responders at 5 mg/kg ([2]; read-out: Survivors): 50%
NCCSCc1cnccc1SC1=C(C(=O)O)N2C(=O)[C@@H](NC(=O)/C(=N\O)c3nc(N)sc3Cl)[C@H]2SC1 [Cmpd 16, (7R)-7-[(Z)-2-(2-amino-5-chlorothiazol-4-yl)-2-(hydroxyimino)acetamido]-3-(3-aminoethylthiomethylpyrid-4-ylthio)-3-cephem-4-carboxylate, trifluoroacetic acid salt] | 0.5 | 10 | 30 | 55.6 | 80 | 1 | 2 | 0.25 | 0.25 | 0.5 | 8 | 1 | 8 | 0.13 | 0.13 | > 32 | ≤ 0.06 | 0.25 | 1 | 1 | responders at 0.156 mg/kg ([2]; read-out: Survivors): 20%
NCCSCc1cnccc1SC1=C(C(=O)O)N2C(=O)[C@@H](NC(=O)/C(=N\O)c3ccccc3)[C@H]2SC1.O=C(O)C(F)(F)F [Cmpd 26, (7R)-7-[(Z)-2-phenyl-2-(hydroxyimino)acetamido]-3-(3-aminoethylthiomethylpyrid-4-ylthio)-3-cephem-4-carboxylate, trifluoroacetic acid salt] | 0.5 | 10 | 50 | 50 | 70 | 1.06 | 2 | 0.5 | 0.13 | 0.25 | > 32 | 1 | 8 | ≤ 0.06 | 0.13 | > 32 | ≤ 0.06 | 0.13 | 1 | 1 | responders at 5 mg/kg ([2]; read-out: Survivors): 90%
